Data taken from patent EP4748847A1, “PEPTIDE COMPLEX HAVING VEGFR -2 AGONIST ACTIVITY” (Peptidream Inc, priority 2023, dated 2025).
Where no end group is shown, it is not given here.

Columns and labels:
VEGFR-2 = biological target: T1, VEGFR-2 (Homo sapiens, UniProt P35968); assay: pVEGFR AlphaLISA assay (VEGFR-2 phosphorylation, p-Tyr1175) in HUVECs; type: cell-based; details: 10 minutes stimulation, % activity, maximum VEGF165a signal = 100%, unstimulated = 0%, peptide 10, 100 nM (dimer structures 2-41)
T1 construct: endogenous in cells; host or cells: HUVEC
T1 sequence (P35968 20-1356): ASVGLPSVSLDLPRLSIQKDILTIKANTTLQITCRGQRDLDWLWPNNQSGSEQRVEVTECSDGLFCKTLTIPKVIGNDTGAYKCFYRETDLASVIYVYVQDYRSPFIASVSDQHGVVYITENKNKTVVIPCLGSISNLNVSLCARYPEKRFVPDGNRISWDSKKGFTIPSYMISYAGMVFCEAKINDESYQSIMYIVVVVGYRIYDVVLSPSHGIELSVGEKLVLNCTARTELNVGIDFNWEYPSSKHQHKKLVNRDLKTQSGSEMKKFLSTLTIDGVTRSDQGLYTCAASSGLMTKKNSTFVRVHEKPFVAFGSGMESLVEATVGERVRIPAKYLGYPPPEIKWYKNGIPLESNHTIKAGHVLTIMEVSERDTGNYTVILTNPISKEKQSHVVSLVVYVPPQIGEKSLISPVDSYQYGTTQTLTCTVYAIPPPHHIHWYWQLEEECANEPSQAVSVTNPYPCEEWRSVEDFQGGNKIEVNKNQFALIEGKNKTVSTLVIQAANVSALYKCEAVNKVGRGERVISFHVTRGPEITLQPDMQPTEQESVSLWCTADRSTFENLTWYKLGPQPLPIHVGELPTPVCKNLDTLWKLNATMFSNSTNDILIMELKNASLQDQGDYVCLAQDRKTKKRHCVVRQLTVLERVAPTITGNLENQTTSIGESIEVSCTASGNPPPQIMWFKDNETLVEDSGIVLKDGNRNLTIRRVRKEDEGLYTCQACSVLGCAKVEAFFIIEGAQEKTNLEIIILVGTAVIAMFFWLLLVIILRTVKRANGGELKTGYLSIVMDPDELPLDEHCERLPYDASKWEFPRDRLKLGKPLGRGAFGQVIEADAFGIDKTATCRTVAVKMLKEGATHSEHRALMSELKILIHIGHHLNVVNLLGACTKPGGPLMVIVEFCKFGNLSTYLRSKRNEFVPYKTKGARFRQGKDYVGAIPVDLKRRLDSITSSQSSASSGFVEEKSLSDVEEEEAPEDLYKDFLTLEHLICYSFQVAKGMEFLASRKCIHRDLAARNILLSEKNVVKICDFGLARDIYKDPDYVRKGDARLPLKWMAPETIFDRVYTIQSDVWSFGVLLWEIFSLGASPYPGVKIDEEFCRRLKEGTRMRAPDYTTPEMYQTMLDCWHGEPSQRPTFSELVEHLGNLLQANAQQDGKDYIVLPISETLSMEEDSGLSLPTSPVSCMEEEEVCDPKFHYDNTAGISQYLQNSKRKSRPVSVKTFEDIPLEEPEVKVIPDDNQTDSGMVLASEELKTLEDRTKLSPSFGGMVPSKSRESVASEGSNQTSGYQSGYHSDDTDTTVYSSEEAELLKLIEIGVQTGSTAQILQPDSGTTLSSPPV
How it was run: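 HUVECs grown 2 days, starved 18 hours in EBM-2 with 0.5% FBS, then stimulated 10 minutes at 37°C with peptide or VEGF165a (0.08–20 nM). VEGFR-2 p-Tyr1175 in lysates read by AlphaLISA; % activity scaled to maximal VEGF165a signal (100%) and unstimulated control (0%), binned by activity at tested peptide concentrations.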

ERK = assay: pERK AlphaLISA assay (ERK phosphorylation, p-Erk1/2 Thr202/Tyr204) in HUVEC lysate; type: cell-based, human; details: HUVEC lysate of the pVEGFR assay; % activity, maximum VEGF165a signal = 100%, unstimulated = 0%; peptide 10, 100 nM (dimer structures 2-41)
Protocol: To evaluate the intracellular signaling activation ability of the VEGFR-2 agonist peptides of the present invention, ERK phosphorylation was verified. Using the lysate employed in the pVEGFR AlphaLISA assay, the assay was performed according to the protocol of the AlphaLISA SureFire Ultra p-Erk1/2 (Thr202/Tyr204) Assay Kit (PerkinElmer). Signal detection was performed using a SpectraMax Paradigm multimode microplate reader (Molecular Devices). The obtained signals were analyzed using GraphPad Prism, and % activity was calculated with the maximum signal induced by VEGF165a set as 100% and the unstimulated control as 0%.
The VEGF165a concentration was evaluated at five points (0.08, 0.31, 1.25, 5, 20 nM) using 1/4-fold dilutions starting from 20 nM to determine the maximum value (100%). Peptide concentrations tested were: 3.2, 16, 80 nM for dimer structure […], 100 nM for dimer structures numbers 2-41; and 1.25, 5, 20 nM for dimer structures numbers 42-57.
For % activity, peptides showing ≥50% activity at 3.2 nM were designated 1-A, those showing ≥50% activity at 16 nM were designated 1-B, those showing ≥50% activity at 80 nM were designated 1-C, and those showing ≥1% but <50% activity at 80 nM were designated 1-D. […]

HUVEC = HUVEC proliferation promotion evaluation (CellTiter-Glo); type: cell-based, human; details: 2 days culture, % activity, maximum VEGF165a signal = 100%, peptide 1, 10, 100 nM
Protocol: To evaluate the biological activity of the VEGFR-2 agonist peptide of the present invention, an HUVEC proliferation promotion evaluation was conducted. HUVECs cultured as described above were detached using Tryple (Thermo Fisher Scientific). They were then seeded at 10,000 cells per well onto Nunc™ MicroWell™ 96 -Well, Nunclon Delta-Treated, Flat-Bottom Microplate (cat. #136101) . After 24 hours, cells were starved by replacing with EBM-2 medium (LONZA) containing 0.5% FBS (Thermo Fisher Scientific), 0.1% Heparin (included with the above Lonza CC-3162), and 0.1% Gentamicin (Nacalai) and cultured for 18 hours. Subsequently, Recombinant Human VEGF 165a Protein (R&D Systems) or the peptide was added, and the cells were cultured for 2 days at 37°C in a CO2 incubator. Assays were performed according to the CellTiter-Glo (Promega) kit protocol, and signals were detected using a SpectraMax Paradigm multimode microplate reader (Molecular Devices) was used for signal detection. The obtained signals were analyzed using GraphPad Prism, and % activity was calculated with the maximum signal induced by VEGF165a set as 100% and the unstimulated control as 0%.
The VEGF165a concentration was evaluated at six points (0.006, 0.03, 0.16, 0.8, 4, 20 nM) using 1/5-fold dilutions starting from 20 nM to determine the maximum value (100%). […]

Dimer Structure No. 1: complex of Peptide Sequence No. 3 (W-W-V-D-V-Q-D-D-L-Y-F-V-D-C-G) and Linker Structure No. 1 (PEG12c-K-PEG12c), Conjugation No. 15 (WWVDVQDDLYFVDCG; also: dimer via PEG12c-K-PEG12c linker)
pVEGFR2 Assay Results (VEGFR-2): 2-C (1% or more but less than 50% activity at 100 nM)
pERK Assay Results (ERK): 2-B (50% or more activity at 100 nM)
proliferation (HUVEC): 4-D (≥1% but <50% activity at 100 nM)
